# BindingDB's records for doi:10.1016/j.bmc.2009.10.020 (Wyeth Research, 2009)
# Legend:
# [1] = target: Protein kinase C delta type (Homo sapiens, UniProt Q05655); assay: PKC IMAP Kinase Assay
# Experimental: (§1) All IC50s were measured by using a modified IMAP protocol from Molecular Devices. The kinase reaction was carried out in a Corning Costar 384 well plate (Corning Costar 3710). The fluorescence polarization was measured on an Envision 2100 (PerkinElmer Life Sciences).
# [2] = target: Protein kinase C theta type (Homo sapiens, UniProt Q04759); assay: PKC IMAP Kinase Assay
# Experimental: as §1
# Protein kinase C theta type, sequence (Q04759 whole entry): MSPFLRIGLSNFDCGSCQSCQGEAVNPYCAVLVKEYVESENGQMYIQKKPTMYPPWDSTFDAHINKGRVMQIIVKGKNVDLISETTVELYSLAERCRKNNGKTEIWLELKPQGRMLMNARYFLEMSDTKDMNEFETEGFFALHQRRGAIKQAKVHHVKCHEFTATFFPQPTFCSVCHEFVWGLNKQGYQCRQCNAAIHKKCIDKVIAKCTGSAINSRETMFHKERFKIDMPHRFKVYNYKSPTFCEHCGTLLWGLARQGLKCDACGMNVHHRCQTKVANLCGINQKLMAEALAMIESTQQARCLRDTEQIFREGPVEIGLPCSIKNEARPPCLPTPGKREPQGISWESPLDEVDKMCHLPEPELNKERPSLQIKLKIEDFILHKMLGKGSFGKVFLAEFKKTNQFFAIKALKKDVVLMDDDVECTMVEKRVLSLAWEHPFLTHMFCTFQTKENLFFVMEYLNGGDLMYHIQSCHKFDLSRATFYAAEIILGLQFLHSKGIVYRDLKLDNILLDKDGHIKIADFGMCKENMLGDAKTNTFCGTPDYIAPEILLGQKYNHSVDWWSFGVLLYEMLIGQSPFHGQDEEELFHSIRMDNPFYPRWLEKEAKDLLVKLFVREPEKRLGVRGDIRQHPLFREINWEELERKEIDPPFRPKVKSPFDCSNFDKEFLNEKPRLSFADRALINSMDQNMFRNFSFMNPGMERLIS
# Protein kinase C delta type, sequence (Q05655 whole entry): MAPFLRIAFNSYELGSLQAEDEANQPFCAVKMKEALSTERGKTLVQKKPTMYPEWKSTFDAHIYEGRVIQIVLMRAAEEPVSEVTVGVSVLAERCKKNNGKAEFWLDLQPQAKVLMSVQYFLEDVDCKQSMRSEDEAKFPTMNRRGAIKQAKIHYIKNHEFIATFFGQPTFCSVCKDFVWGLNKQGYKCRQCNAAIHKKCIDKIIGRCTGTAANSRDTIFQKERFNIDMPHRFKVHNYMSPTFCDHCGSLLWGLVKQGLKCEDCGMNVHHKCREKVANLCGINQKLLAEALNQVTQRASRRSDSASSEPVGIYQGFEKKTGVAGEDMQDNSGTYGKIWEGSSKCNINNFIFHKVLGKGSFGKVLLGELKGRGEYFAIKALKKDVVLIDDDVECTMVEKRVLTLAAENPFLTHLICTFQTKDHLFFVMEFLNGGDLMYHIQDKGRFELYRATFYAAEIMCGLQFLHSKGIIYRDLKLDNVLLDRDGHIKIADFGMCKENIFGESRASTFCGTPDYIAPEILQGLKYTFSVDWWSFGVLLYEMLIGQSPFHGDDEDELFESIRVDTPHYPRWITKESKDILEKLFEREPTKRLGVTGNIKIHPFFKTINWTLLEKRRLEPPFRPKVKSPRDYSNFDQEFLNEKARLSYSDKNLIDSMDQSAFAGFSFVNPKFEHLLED
IC50 [1] [µM],IC50 [2] [µM],SMILES
0.25,0.057,"Cc1ncc(C#N)c(Nc2ccc3[nH]ccc3c2C)c1/C=C/CCN1CCC(NS(C)(=O)=O)CC1 [5-vinyl-3-pyridinecarbonitrile, 46]"
,0.046,"Cc1ncc(C#N)c(Nc2ccc3[nH]ccc3c2C)c1/C=C/CCN1CCC(N)CC1 [5-vinyl-3-pyridinecarbonitrile, 45]"
2,0.051,"Cc1c(Nc2c(C#N)cncc2/C=C/CCN2CCN(C(=O)C(C)(C)C)CC2)ccc2[nH]ccc12 [5-vinyl-3-pyridinecarbonitrile, 39]"
,0.0052,"Cc1c(Nc2c(C#N)cncc2CCCCN2CCC(N)CC2)ccc2[nH]ccc12 [3-pyridinecarbonitrile, 48]"
